Assay results published in BindingDB's records for PubMed 35777718 (Wuxi Apptec, 2022).

Experiment: Inhibition of Kir2.1 (unknown origin)

Row | SMILES | IC50
1 | C[C@]1(CN2Cc3nc(-c4ccc(F)cc4)sc3C2)CN=C(N)O1 | > 13.3 µM
2 | C[C@]1(CN2Cc3nc(-c4ccc(F)cc4)sc3C2)Cn2cc([N+](=O)[O-])nc2O1 | > 40 µM
